According to ChEMBL document CHEMBL4251715, “Hepatoprotective Dibenzocyclooctadiene and Tetrahydrobenzocyclooctabenzofuranone Lignans from Kadsura longipedunculata” (2018):

System: HepG2
Experiment: Hepatoprotective activity against APAP-induced toxicity in human HepG2 cells assessed as cell survival rate at 10 uM after 48 hrs by MTT assay relative to control
Format: functional
Conditions: HepG2, 48 h, read-out: Survival

Compound | viability at 10 µM
COC(=O)c1cc(OC)c2c(c1-c1c(CO)cc(OC)c3c1OCO3)OCO2 [BICYCLOL] | 49%
COC1=C(OC)C(=O)[C@]23COc4c5c(cc(c42)[C@H](OC(=O)c2ccccc2)[C@H](C)[C@](C)(O)CC3=C1)OCO5 | 52.2%
COC1=C(OC)C(=O)[C@]23COc4c5c(cc(c42)[C@H](OC(C)=O)[C@H](C)[C@H](C)CC3=C1)OCO5 | 50.2%
